# From publication PMC11562385 (RSC Chemical Biology, 2024)
# Read-outs that look alike come from different tables or passages of the source. Peptide text beside a SMILES is read from it.
# Assays:
# PD1:PDL1 interaction = molecular target: T1, PD1:PDL1 interaction (Homo sapiens, UniProt Q15116); experiment: PD1/PDL1 immunoblocking ELISA (BPS Bioscience kit cat # 72005); format: binding; details: for LE (ligand efficiency): LE = -RTln(EC50)/HA, HA = non-hydrogen atoms omitting the strap (RWV•••VWE)
# T1 construct: purchased BPS Bioscience 72005
# Procedure: Original loops with Phe/Trp and their Gly-derived analogs. Experimental EC50 values from inhibitory dose–response curves. Error bars indicate the mean ± SD, (n = 3). […]
# SDS -Pages, buffers, and stain were purchased from Fisher
# 8. Immunoblocking ELISA Assay
# Peptide inhibitor stock solutions were prepared in the concentration range of approximately 1-5 mM in DMSO. […]
# plate was then washed and blocked with blocking buffer for 1 h at room temperature. Inhibitor solutions (ranging from 0.01 to 100 μM) and a blank solution (DMSO/PBS buffer) were added to designated wells. To initiate the […]
# inhibitor solutions. After a 2 h incubation at room temperature, the plate was washed and blocked again for 10 min. Streptavidin-HRP (diluted at 1 : 1000) was added and incubated for 1 h at room temperature with gentle shaking. The plate was washed and blocked once more for 10 min. ELISA ECL substrate was added, and the resulting chemoluminescence was immediately measured in a luminometer (FLUOstar OPTIMA, BMG Labtech).
# The luminescence value of the blank was subtracted from all readings according to the manufacturer's
# [1] = Variable-temperature CD melting curves (CD-melts at 228±2 nm and 202±2 nm), individual and global two-state fits; format: physicochemical; details: for ΔGF0: CD-melt at 228±2 nm, individual two-state Gibbs-Helmholtz fit (Origin 9.0), phosphate buffer 15 mM pH 6.5 ± MeOH; for ΔGF0 / DHm (fitted value, results from OriginPro) / Tm (fitted value, results from OriginPro): 0-95 °C; for Tm / Hairpin %-fold 291K / Hairpin %-fold 310K: Table S5, individual fit; for Tm: 228±2 nm; for -TΔSF0 / ΔCpF0 / ΔHF0 / ΔHm: as E16; for VT-CD %-fold: folded fraction (χF) at 25 °C from CD-melts, (R) regular / (B) bulged fold; for VT-CD %-fold / VT-CD Tm (°C): phosphate buffer 15 mM pH 6.5, up to 20% MeOH; for VT-CD Tm (°C): melting temperature from CD-melts; for DHm, fitted value from OriginPro / Tm, fitted value from OriginPro: xlsx sheet of the peptide, individual fit of CD-melt; for DHm (fitted value, results from OriginPro) / Tm (fitted value, results from OriginPro): two-state fit of the CD melt θ - θcoil(95) vs T, l 0.1 cm, peptide c 3.2e-5 to 5e-5 M
# Procedure: Recently, our laboratory brought forward a novel synthetic technology for the synthesis of acyclic β-hairpins with long loops. […] To compare hairpins’ stability, both regular (R) and bulged (B) scaffolds were crafted around a flexible 10-residue model loop (G4K2G4) and analyzed by CD (circular dichroism) spectroscopy (Fig. 2(A), see ESI, ^† Table S5). The […] structure of these model scaffolds 1avs.2a in solution were recorded in the far-UV CD spectra. […] The CD-exciton intensity was therefore used as a global probe to determine the %-folding of ADAPTins and to obtain melting curves corresponding to the hairpin fraying mechanism upon a gradual increase of temperature (0 to 95 °C).[68] […] In addition, NMR (nuclear magnetic resonance) chemical shifts were measured to determine variations in backbone […] structures (Fig. 2(B)). Secondary chemical shift deviations (CSDs) were calculated against random coil values[69] for both ADAPTin scaffolds 1vs.2 to verify that the hairpins were folded and if any variation of conformational rigidity exist within the loops. […]
# Mass Spectrometer coupled to a Vanquish™ Neo UHPLC System (Thermo Scientific™). Peptide solutions for circular dichroism (CD) were prepared within a concentration range of 15-120 µM in a phosphate buffer (15 mM, […]
# measured accurately using a JASCO V-670 spectrophotometer relied on the combined molar absorptivity of Trp (ε280 = 5580 M-1 .cm-1 per Trp) and Tyr (ε280 = 1280 M-1 .cm-1 per Tyr) to determine each sample's concentration.
# CD spectra were recorded using a JASCO J-810 Spectropolarimeter equipped with a temperature controller module JASCO PFD-425S. Raw CD melting curves were processed in SpectraGryph, and fitting was performed in OriginPro 9.0 (Originlab Corporation, U.S.A.). NMR samples were prepared by reconstituting freeze -dried peptides (~ 1-5 mg) in mixture of water and DMSO -d6 (90:10 v/v) using 2,2-dimethyl-2-silapentane-5-sulfonate (DSS) as internal standard for chemical shifts (0 ppm), and spectra were recorded at 291 K (18 °C) unless otherwise stated. Chemical shifts ( δ) are reported in ppm. Samples for NMR experiments were prepared in a range of 3-10 mM of peptide in solution unless otherwise noted.
# [2] = [PD1•PDL1] blocking EC50, Fig. 3B, cut-off bars of congeneric pairs (Phe/Trp vs Gly), n = 3
# [3] = ELISA, mean of three independent experiments, read-out: EC50 Value
# T1 sequence (Q15116 25-167 limits assumed): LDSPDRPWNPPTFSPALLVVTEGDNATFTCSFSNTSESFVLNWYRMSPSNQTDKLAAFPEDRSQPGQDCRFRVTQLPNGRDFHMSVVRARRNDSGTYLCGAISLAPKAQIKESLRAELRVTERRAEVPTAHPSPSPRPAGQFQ
SMILES,LE (ligand efficiency) (PD1:PDL1 interaction),"EC50 (PD1:PDL1 interaction; PD1:PDL1 inhibition EC50, ELISA, PDL1-coated plate, biotin-labeled human PD-1, 2 h rt, chemiluminescence, Hill fit, mean ± SD, n = 3, SD) [µM]",EC50 (PD1:PDL1 interaction; [2]) [µM],ΔGF0 [1] [kcal/mol],Tm [1] [oC],Hairpin %-fold 291K [1] [%],Hairpin %-fold 310K [1] [%],-TΔSF0 [1] [kcal/mol],ΔCpF0 [1] [cal.deg-1.mol-1],ΔHF0 [1] [kcal/mol],VT-CD %-fold [1],VT-CD Tm (°C) [1] [°C],"DHm, fitted value from OriginPro [1] [kcal/mol]","Tm, fitted value from OriginPro [1] [K]",EC50 (PD1:PDL1 interaction; [3]) [µM],ΔHm [1] [kcal/mol],"DHm (fitted value, results from OriginPro) [1] [kcal/mol]","Tm (fitted value, results from OriginPro) [1] [K]","TM (°C) ([1]; Fig. 2, CD-melts of regular vs bulged scaffolds)"
CSCC[C@H](NC(=O)[C@H](CC(=O)O)NC(=O)[C@H](Cc1ccccc1)NC(=O)[C@H](CCCNC(=N)N)NC(=O)[C@H](Cc1ccc(O)cc1)NC(=O)[C@H](CC(=O)O)NC(=O)[C@H](CCCNC(=N)N)NC(=O)[C@H](Cc1c[nH]c2ccccc12)NC(=O)[C@@H](NC(=O)[C@H](Cc1c[nH]c2ccccc12)NC(=O)[C@@H](N)CCCNC(=N)N)C(C)C)C(=O)NCC(=O)N[C@@H](Cc1ccccc1)C(=O)N[C@@H](CC(=O)O)C(=O)N[C@@H](Cc1c[nH]c2ccccc12)C(=O)N[C@H](C(=O)N[C@@H](Cc1c[nH]c2ccccc12)C(=O)N[C@@H](CCC(=O)O)C(=O)O)C(C)C [1c] (H-RWVWRDYRFDMGFDWVWE-OH),0.06,12.3 ± 1.5,> 5,0.31 ± 0.01,-2.99,40 ± 1,32 ± 1,3.66 ± 0.01,-23 ± 0.4,-3.35 ± 0.01,40% (R),<0,-2.72263,270.158,,,,,
CSCC[C@H](NC(=O)[C@H](CC(=O)O)NC(=O)[C@H](Cc1ccccc1)NC(=O)[C@H](CCCNC(=N)N)NC(=O)[C@H](Cc1ccc(O)cc1)NC(=O)[C@H](CC(=O)O)NC(=O)[C@H](CCCNC(=N)N)NC(=O)[C@H](CCCNC(=N)N)NC(=O)[C@H](Cc1c[nH]c2ccccc12)NC(=O)[C@@H](NC(=O)[C@H](Cc1c[nH]c2ccccc12)NC(=O)[C@@H](N)CCCNC(=N)N)C(C)C)C(=O)NCC(=O)N[C@@H](Cc1ccccc1)C(=O)N[C@@H](CC(=O)O)C(=O)N[C@@H](Cc1ccc(O)cc1)C(=O)N[C@@H](Cc1c[nH]c2ccccc12)C(=O)N[C@H](C(=O)N[C@@H](Cc1c[nH]c2ccccc12)C(=O)N[C@@H](CCC(=O)O)C(=O)O)C(C)C [1d] (H-RWVWRRDYRFDMGFDYWVWE-OH),0.05,,,0.010 ± 0.001,34.9,48 ± 1,49 ± 1,-1.08 ± 0.04,-189 ± 2,1.09 ± 0.04,49% (R),,-0.0374427,303.944,6.8,-0.037 ± 0.07,,,
CC(C)[C@H](NC(=O)CNC(=O)[C@H](CO)NC(=O)[C@H](CO)NC(=O)[C@H](CC(=O)O)NC(=O)[C@@H]1CCCN1C(=O)[C@H](CO)NC(=O)[C@H](Cc1c[nH]c2ccccc12)NC(=O)[C@@H](NC(=O)[C@H](Cc1c[nH]c2ccccc12)NC(=O)[C@@H](N)CCCNC(=N)N)C(C)C)C(=O)N[C@@H](C)C(=O)N[C@@H](Cc1ccc(O)cc1)C(=O)N[C@@H](Cc1c[nH]c2ccccc12)C(=O)N[C@H](C(=O)N[C@@H](Cc1c[nH]c2ccccc12)C(=O)N[C@@H](CCC(=O)O)C(=O)O)C(C)C [1e] (H-RWVWSPDSSGVAYWVWE-OH),0.10,,,-0.90 ± 0.01,58.3,85 ± 1,74 ± 1,5.60 ± 0.06,-148 ± 4,-6.50 ± 0.06,85% (R),58,,,0.27,-11.5 ± 0.05,-11.4534,331.438,
CC[C@H](C)[C@H](NC(=O)[C@H](CC(=O)O)NC(=O)[C@H](CC(C)C)NC(=O)[C@H](CC(=O)O)NC(=O)[C@H](CCCNC(=N)N)NC(=O)[C@H](Cc1c[nH]c2ccccc12)NC(=O)[C@@H](NC(=O)[C@H](Cc1c[nH]c2ccccc12)NC(=O)[C@@H](N)CCCNC(=N)N)C(C)C)C(=O)N[C@@H](C)C(=O)N[C@H](C(=O)N[C@H](C(=O)N[C@@H](CCCNC(=N)N)C(=O)N[C@@H](CC(=O)O)C(=O)N[C@@H](Cc1ccc(O)cc1)C(=O)N[C@@H](Cc1c[nH]c2ccccc12)C(=O)N[C@H](C(=O)N[C@@H](Cc1c[nH]c2ccccc12)C(=O)N[C@@H](CCC(=O)O)C(=O)O)C(C)C)[C@@H](C)O)[C@@H](C)O [1f] (H-RWVWRDLDIATTRDYWVWE-OH),0.06,,,-0.49 ± 0.01,39.4,78 ± 1,53 ± 1,9.96 ± 0.06,-15 ± 3,-10.5 ± 0.06,78% (R),39,,,3.36,-10.7 ± 0.04,-10.6792,312.539,
CSCC[C@H](NC(=O)[C@H](CC(=O)O)NC(=O)CNC(=O)[C@H](CCCNC(=N)N)NC(=O)[C@H](Cc1ccc(O)cc1)NC(=O)[C@H](CC(=O)O)NC(=O)[C@H](CCCNC(=N)N)NC(=O)[C@H](CCCNC(=N)N)NC(=O)[C@H](C)NC(=O)[C@@H](NC(=O)[C@H](Cc1c[nH]c2ccccc12)NC(=O)[C@@H](N)CCCNC(=N)N)C(C)C)C(=O)NCC(=O)N[C@@H](Cc1ccccc1)C(=O)N[C@@H](CC(=O)O)C(=O)N[C@@H](Cc1ccc(O)cc1)C(=O)N[C@@H](Cc1c[nH]c2ccccc12)C(=O)N[C@H](C(=O)N[C@@H](Cc1c[nH]c2ccccc12)C(=O)N[C@@H](CCC(=O)O)C(=O)O)C(C)C [2b] (H-RWVARRDYRGDMGFDYWVWE-OH),0.06,,> 5,-1.24 ± 0.01,59.1,92 ± 1,81 ± 1,7.65 ± 0.03,-193 ±1,-8.89 ± 0.03,92% (B),59,-15.492,332.248,7.05,,,,59
